Source: patent publication US20220153739A1, “OPIOID RECEPTOR MODULATOR AND USE THEREOF” (Arriba BioPharma, Inc., priority 2020, published 2022)

Columns and labels:
male CD-1 mice [1] = assay: Stress induced fecal output; type: in vivo; settings: for 0 h (Stools), mean / 0-1 h (Stools), mean / 1-2 h (Stools), mean / 2-4 h (Stools), mean: 50 mg/kg PO, stress induced
From the text: The animals used in the studies are male CD-1 mice, average weight about 25 to 35 g, with an average of 5 mice per dose group. The mice were generally housed in colony housing where they are housed 4 per cage in polycarbonate 20 cages with access to food and water ad lib. On the day of the experiment they are transported to the procedure room where they were individually housed in metabolism cage (CAT003) after intragastric administration of Compound D at 50mpk, a reference compound of Formula II (“ORP-101”), and the vehicle alone. Compound D (“ALB-215896”) and the reference compound were each weighed and dissolved in 2.58 ml of de-ion water, mixed by vortex, to prepare the compound D and reference compound solutions at 5 mg/mL.
During the test, the animals were fasted with free access to water. The wire mesh bottomed tall cage creates a novel environment which induces stress in mice. Stool collection and the number of pellets excreted were determined 0, 1, 2, 4 hours after administration. […] Details data of this study is provided below in Table 1.

[2] = Metabolic stability in SD rat liver microsomes; type: in vitro ADME
Experimental: (§1) The metabolic stability of Compound D in SD rat and human liver microsomes were measured One (1) μM of Compound D was incubated with SD rat or human liver microsomes with NADPH in a water bath or tecan at 37° C. for up to 60 min. All samples were monitored using LC-MS/MS.

[3] = Bidirectional permeability in Caco-2 cells; type: in vitro ADME; settings: human, 120 minutes; for Papp B→A at 120 min, 2 μM: Caco-2, Caco-2, B to A direction, read-out: mean apparent permeability coefficient (Papp), B to A
Experimental: (§2) The objective of this study was to determine the bidirectional permeability and efflux ratio of compound D in the Caco-2 cells. Caco-2 cells (purchased from ATCC) at passage number 49 were seeded on 96-well transport inserts and cultured for 22 days before being used for the transport experiment. Compound D was dosed bi-directionally at 2 μM. Samples were taken at 0 and 120 minutes after incubation and analyzed by LC-MS/MS. […] Therefore, both the efflux ratios could not be calculated.

Caco-2 cells = assay: Bidirectional permeability in Caco-2 cells; type: in vitro ADME
Experimental: as §2

[4] = Metabolic stability in human liver microsomes; type: in vitro ADME
Experimental: as §1

male CD-1 mice [5] = assay: Post-inflammatory altered GI transit time (mustard oil), fecal output; type: in vivo; settings: for 0 h (Stools), mean / 1 h (Stools), mean / 2 h (Stools), mean / 4 h (Stools), mean: 50 mg/kg PO, post-inflammatory
Experimental: This test was designed to measure the effect of test substance on gastrointestinal hypersensitivity that occurs following inflammation. Post-inflammatory altered GI transit was induced in male CD-1 mice by injecting freshly opened oil of mustard (95% pure allyl isothiocyanate, 0.5% in ethanol). The effect of stress on GI is motility is evaluated 4 weeks later, when although there is no longer inflammation, the GI tract remains in a hypersensitive state. Effect of test substance was measured after oral administration (intragastric gavage) and subjecting the animals to environmental stress by housing them in metabolism cage. During the test, the animals were allowed access to water ad lib. The wire mesh bottomed tall cage creates a novel environment, which induces stress in mice. The number of pellets excreted was determined at 1 h, 2 h and 4 h after administration. Compound D (ALB-215896) and ORP-101 were each weighed and dissolved in 2.58 ml of de-ion water, mixed by vortex, to prepare the compound D and reference compound solutions at 5 mg/mL.

[6] = 1 μM, NADPH, 37° C., up to 60 min, read-out: half-life (T1/2)
[7] = read-out: intrinsic clearance (CLint(liver))

Row | SMILES | 0 h (Stools), mean (male CD-1 mice [1]) | 0-1 h (Stools), mean (male CD-1 mice [1]) | 1-2 h (Stools), mean (male CD-1 mice [1]) | 2-4 h (Stools), mean (male CD-1 mice [1]) | Papp B→A at 120 min, 2 μM [3] | 0 h (Stools), mean (male CD-1 mice [5]) | 1 h (Stools), mean (male CD-1 mice [5]; 1 h) | 2 h (Stools), mean (male CD-1 mice [5]) | 4 h (Stools), mean (male CD-1 mice [5]) | other results
1 | COc1ccc2c3c1O[C@@H]1[C@@]4(OCCOc5ccc6c7c5OC5C8(OC)CC[C@@]9(CC8[C@](C)(O)C(C)(C)C)[C@@H](C6)N(CC6CC6)CCC759)CC[C@@]5(C[C@@H]4[C@](C)(O)C(C)(C)C)[C@@H](C2)N(CC2CC2)CC[C@]315 (stereo in doubt) [Compound D, 2-((4R,4aS,6R,7R,7aR,12bS)-9-(2-(((4R,4aS,6R,7R,7aS,12bS)-9-(Methyloxy)-3-(cyclopropylmethyl)-6-(2-hydroxy-3,3-dimethylbutan-2-yl)-1,2,3,4,5,6 hexahydro-4a,7-ethano-4,12-methanobenzofuro[3,2-e]isoquinolin-7(7aH)yl)oxy)ethoxy)-3-(cyclopropylmethyl)-7-methoxy-1,2,3,4,5,6,7,7a-octahydro-4a,7ethano-4,12-methanobenzofuro[3,2-e]isoquinolin-6-yl)-3,3-dimethylbutan-2-ol] | 0 Stools | 2.4 Stools | 1.4 Stools | 2 Stools | < 0.4 ×10⁻⁶ cm/s | 0.00 Stools | 1.49 Stools | 1.59 Stools | 2.77 Stools | fecal output versus vehicle and reference compound, in words (male CD-1 mice [1]; oral 50mpk, 1 h, 2 h and 4 h time points): significantly reduced the fecal output; metabolic stability in words [2]: moderately metabolized; half-life at 1 μM [2, 6]: 1.46 h; CLint scaled at 1 μM [2, 7]: 28.5 mL/min/kg; Papp A→B at 120 min, 2 μM ([3]; Caco-2, apical to basolateral, 2 μM, read-out: mean apparent permeability coefficient (Papp), A to B): < 0.48 ×10⁻⁶ cm/s; mean apparent permeability coefficient (Papp), B to A (Caco-2 cells; Caco-2, B to A direction, 120 minutes): < 0.5 ×10⁻⁶ cm/s; substrate of transporters (Caco-2 cells; Caco-2, from B to A Papp): poor and no substrate of transporters; permeability classification (Caco-2 cells; across the Caco-2 cell monolayer): low permeability; metabolic stability in words [4]: stably metabolized; half-life at 1 μM [4, 6]: 1.37 h; CLint scaled at 1 μM [4, 7]: 15.2 mL/min/kg; gastrointestinal motility measured by fecal output, in words (male CD-1 mice [5]; 50mpk, 1 h, 2 h, and 4 h time points, post-inflammatory model): significantly decreased gastrointestinal motility
2 | CO[C@]12CC[C@@]3(C[C@@H]1[C@](C)(O)C(C)(C)C)[C@H]1Cc4ccc(OCCOc5ccc6c7c5O[C@H]5C78CCN(CC7CC7)[C@H](C6)[C@]86CC[C@]5(OC)[C@@H]([C@](C)(O)C(C)(C)C)C6)c5c4[C@@]3(CCN1CC1CC1)[C@@H]2O5 [ORP-101, reference compound] | 0 Stools | 3.8 Stools | 3 Stools | 2.8 Stools | < 0.13 ×10⁻⁶ cm/s | 0 Stools | 1.75 Stools | 2.00 Stools | 3.75 Stools | Papp A→B at 120 min ([3]; Caco-2, apical to basolateral, read-out: mean apparent permeability coefficient (Papp), A to B): < 0.14 ×10⁻⁶ cm/s
